Laboratory results published in paper PMC3685188 (Chemical Research in Toxicology, 2013).

Experiments:
[1] = biological target: bGABARa5; assay: LGIC_bGABARa5 binding; design: species or system bovine; conditions: LCT ∼[…] for non-CYPs; value = assay target as listed
[2] = biological target: rNNR_BungSens (Rattus norvegicus, UniProt Q05941); assay: LGIC_rNNR_BungSens binding; conditions: LCT ∼[…] for non-CYPs; value = assay target as listed
[3] = biological target: hAdrb2 (Homo sapiens, UniProt P07550); assay: GPCR_hAdrb2 binding; conditions: LCT ∼[…] for non-CYPs; value = assay target as listed
Sequence of hAdrb2 (P07550 whole entry): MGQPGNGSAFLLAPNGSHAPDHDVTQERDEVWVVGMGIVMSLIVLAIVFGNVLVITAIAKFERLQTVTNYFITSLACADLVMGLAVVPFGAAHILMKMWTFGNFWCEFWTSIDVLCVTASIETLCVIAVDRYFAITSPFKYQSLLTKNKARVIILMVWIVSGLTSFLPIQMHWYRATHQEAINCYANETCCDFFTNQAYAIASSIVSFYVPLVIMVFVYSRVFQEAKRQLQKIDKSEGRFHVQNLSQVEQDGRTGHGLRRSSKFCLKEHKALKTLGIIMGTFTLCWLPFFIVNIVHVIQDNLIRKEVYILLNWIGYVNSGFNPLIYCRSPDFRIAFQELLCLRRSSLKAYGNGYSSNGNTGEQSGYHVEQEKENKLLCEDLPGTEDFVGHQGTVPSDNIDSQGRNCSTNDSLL

[4] = biological target: mCCKAPeripheral (Mus musculus, UniProt O08786); format: binding
Sequence of mCCKAPeripheral (O08786 whole entry): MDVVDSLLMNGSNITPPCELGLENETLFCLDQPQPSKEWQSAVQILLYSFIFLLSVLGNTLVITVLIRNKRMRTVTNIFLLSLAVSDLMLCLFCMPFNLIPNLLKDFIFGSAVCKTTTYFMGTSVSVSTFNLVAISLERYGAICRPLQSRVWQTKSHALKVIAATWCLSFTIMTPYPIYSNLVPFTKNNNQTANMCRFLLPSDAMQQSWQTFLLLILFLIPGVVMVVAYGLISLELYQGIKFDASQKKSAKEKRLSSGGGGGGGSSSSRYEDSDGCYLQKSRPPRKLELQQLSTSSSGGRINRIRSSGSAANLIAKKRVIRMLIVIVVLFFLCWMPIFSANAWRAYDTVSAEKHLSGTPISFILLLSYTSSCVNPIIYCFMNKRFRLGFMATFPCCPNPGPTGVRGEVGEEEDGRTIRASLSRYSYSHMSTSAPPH

[5] = biological target: gDAT; assay: TR_gDAT dopamine transporter binding; design: species or system guinea pig; conditions: LCT ∼[…] for non-CYPs; value = assay target as listed
[6] = biological target: hETA (Homo sapiens, UniProt P25101); assay: GPCR_hETA binding; conditions: LCT ∼[…] for non-CYPs; value = assay target as listed
Sequence of hETA (P25101 21-427): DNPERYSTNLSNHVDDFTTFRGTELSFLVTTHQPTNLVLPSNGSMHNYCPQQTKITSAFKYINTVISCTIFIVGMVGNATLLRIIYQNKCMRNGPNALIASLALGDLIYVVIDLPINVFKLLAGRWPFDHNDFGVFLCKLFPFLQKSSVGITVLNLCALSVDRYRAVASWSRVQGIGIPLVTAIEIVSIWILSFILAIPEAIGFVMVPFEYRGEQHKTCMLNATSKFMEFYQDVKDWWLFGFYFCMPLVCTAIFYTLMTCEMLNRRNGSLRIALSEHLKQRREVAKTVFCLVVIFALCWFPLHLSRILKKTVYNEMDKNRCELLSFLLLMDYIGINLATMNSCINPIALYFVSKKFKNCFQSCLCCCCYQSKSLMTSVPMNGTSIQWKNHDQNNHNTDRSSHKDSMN

[7] = biological target: hCYP4F12 (Homo sapiens, UniProt Q9HCS2); assay: ADME_hCYP4F12_Activator; format: in vitro ADME; conditions: activator assay; LCT ∼0.009 μM for CYPs; value = assay target as listed
Sequence of hCYP4F12 (Q9HCS2 whole entry): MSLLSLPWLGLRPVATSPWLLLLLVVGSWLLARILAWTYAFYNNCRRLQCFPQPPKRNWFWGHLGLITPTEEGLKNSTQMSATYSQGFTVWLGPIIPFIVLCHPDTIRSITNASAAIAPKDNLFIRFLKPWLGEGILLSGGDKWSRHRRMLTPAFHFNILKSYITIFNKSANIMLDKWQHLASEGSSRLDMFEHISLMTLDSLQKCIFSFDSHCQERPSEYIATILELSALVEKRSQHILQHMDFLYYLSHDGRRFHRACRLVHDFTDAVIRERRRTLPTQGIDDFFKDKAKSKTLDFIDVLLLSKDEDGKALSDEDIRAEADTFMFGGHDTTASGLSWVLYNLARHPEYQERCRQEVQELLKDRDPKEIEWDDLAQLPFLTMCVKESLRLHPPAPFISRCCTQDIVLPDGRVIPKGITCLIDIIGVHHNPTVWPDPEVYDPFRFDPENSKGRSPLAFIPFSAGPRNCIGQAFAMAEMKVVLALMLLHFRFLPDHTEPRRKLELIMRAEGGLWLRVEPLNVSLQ

[8] = tested on: gSIGMA_NonSelective; format: binding, guinea pig; conditions: LCT ∼[…] for non-CYPs; value = assay target as listed
[9] = biological target: h5HT7 (Homo sapiens, UniProt P34969); assay: GPCR_h5HT7 binding; conditions: LCT ∼[…] for non-CYPs; value = assay target as listed
Sequence of h5HT7 (P34969 whole entry): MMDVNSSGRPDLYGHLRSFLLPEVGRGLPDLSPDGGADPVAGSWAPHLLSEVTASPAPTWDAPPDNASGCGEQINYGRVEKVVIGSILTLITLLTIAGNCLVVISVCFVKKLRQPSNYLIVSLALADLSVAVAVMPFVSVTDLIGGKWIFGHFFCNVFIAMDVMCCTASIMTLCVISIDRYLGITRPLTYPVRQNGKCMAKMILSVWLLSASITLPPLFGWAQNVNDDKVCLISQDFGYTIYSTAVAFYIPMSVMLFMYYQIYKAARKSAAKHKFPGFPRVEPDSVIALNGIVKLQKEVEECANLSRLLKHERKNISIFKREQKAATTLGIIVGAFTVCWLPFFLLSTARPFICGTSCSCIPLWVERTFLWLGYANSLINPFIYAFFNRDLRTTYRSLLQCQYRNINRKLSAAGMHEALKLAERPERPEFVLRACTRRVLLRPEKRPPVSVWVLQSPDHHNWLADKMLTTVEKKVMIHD

[10] = biological target: hDRD1 (Homo sapiens, UniProt P21728); format: binding; conditions: LCT ∼[…] for non-CYPs; value = assay target as listed
Sequence of hDRD1 (P21728 whole entry): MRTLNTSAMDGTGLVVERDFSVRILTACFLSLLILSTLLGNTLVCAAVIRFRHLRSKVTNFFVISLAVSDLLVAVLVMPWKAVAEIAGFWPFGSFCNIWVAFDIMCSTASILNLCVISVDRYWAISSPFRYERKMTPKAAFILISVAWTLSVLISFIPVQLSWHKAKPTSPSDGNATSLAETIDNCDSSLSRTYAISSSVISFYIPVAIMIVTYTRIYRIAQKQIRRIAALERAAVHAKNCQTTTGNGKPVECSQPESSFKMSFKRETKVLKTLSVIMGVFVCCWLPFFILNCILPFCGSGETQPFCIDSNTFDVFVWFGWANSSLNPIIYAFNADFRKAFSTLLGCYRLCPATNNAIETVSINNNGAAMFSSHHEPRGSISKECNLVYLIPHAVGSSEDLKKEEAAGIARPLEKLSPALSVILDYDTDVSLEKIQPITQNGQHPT

[11] = biological target: r5HT_NonSelective; assay: GPCR_r5HT_NonSelective binding; design: species or system rat; conditions: LCT ∼[…] for non-CYPs; value = assay target as listed
[12] = tested on: p5HT2C; format: binding, boar; conditions: LCT ∼[…] for non-CYPs; value = assay target as listed
[13] = biological target: h5HT2A (Homo sapiens, UniProt P28223); format: binding; conditions: LCT ∼[…] for non-CYPs; value = assay target as listed
Sequence of h5HT2A (P28223 whole entry): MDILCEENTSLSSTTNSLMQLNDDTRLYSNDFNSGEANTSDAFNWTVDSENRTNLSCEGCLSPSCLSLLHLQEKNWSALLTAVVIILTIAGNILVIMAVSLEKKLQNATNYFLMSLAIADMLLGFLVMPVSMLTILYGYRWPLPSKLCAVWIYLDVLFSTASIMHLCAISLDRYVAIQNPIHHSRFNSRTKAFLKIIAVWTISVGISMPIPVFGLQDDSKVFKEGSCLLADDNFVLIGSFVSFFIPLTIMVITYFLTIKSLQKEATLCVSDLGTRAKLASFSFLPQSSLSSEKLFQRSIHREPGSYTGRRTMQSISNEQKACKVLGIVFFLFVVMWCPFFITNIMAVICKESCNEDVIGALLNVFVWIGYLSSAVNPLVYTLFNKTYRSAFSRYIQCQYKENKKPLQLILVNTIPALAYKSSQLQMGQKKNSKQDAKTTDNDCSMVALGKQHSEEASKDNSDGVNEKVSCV

[14] = biological target: hDRD4.4 (Homo sapiens, UniProt P21917); format: binding; conditions: LCT ∼[…] for non-CYPs; value = assay target as listed
Sequence of hDRD4.4 (P21917 whole entry): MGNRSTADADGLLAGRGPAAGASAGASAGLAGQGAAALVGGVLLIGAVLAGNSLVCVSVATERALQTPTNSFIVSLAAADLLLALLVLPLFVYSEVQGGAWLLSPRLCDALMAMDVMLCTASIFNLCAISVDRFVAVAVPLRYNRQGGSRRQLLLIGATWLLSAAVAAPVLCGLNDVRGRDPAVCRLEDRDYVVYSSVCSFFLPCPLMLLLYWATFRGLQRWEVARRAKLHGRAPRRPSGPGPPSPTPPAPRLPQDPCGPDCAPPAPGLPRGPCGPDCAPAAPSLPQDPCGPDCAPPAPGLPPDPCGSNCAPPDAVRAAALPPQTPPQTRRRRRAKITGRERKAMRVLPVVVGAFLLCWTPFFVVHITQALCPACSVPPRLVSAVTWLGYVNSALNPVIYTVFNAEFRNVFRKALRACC

[15] = biological target: rSERT (Rattus norvegicus, UniProt P31652); assay: TR_rSERT serotonin transporter binding
Sequence of rSERT (P31652 whole entry): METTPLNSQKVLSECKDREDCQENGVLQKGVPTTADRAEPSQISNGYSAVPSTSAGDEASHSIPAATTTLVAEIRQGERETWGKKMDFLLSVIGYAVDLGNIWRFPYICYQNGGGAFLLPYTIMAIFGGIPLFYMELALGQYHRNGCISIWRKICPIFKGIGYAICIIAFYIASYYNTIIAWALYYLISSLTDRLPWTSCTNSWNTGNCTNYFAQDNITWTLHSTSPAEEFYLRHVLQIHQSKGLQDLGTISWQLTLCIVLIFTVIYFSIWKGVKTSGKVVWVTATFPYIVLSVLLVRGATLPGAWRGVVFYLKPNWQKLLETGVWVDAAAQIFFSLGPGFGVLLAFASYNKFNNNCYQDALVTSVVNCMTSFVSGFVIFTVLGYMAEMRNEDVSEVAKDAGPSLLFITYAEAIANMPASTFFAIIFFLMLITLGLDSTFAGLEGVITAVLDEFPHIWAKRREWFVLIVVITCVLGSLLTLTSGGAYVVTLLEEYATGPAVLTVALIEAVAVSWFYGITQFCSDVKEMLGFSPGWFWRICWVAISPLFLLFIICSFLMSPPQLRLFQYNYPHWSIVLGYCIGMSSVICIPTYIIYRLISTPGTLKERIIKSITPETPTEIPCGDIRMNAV

[16] = biological target: hDUSP3 (Homo sapiens, UniProt P51452); assay: ENZ_hDUSP3 phosphatase inhibition; format: biochemical; conditions: LCT ∼[…] for non-CYPs; value = assay target as listed
Sequence of hDUSP3 (P51452 whole entry): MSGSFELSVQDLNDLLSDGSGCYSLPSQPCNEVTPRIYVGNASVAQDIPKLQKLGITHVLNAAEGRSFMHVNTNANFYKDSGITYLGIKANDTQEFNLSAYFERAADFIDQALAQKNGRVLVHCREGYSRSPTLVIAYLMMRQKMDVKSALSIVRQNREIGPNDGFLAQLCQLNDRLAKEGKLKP

[17] = tested on: kinases and phosphatases; assay: kinase and phosphatase assays taken together; format: biochemical
[18] = biological target: hNTS (Homo sapiens, UniProt P30989); assay: GPCR_hNTS binding; conditions: LCT ∼[…] for non-CYPs; value = assay target as listed

Sequence of rNNR_BungSens (Q05941 23-502): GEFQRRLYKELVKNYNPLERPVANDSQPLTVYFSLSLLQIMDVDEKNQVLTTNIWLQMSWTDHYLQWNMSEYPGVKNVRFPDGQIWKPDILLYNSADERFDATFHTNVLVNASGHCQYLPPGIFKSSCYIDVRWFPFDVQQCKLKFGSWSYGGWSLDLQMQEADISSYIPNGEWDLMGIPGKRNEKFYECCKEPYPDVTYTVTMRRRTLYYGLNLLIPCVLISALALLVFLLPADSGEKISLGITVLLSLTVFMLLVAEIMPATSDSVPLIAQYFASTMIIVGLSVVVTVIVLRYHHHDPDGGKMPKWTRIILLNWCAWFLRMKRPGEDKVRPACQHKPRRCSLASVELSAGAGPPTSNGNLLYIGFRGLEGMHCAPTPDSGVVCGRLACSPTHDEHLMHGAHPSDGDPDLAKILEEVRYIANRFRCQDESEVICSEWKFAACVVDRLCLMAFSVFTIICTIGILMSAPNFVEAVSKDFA

## CCOc1cccc(-n2cc(C(=O)N3CCN(c4cc(C(=O)[O-])c5ccccc5c4)CC3)nc2-c2ccc(C)cc2)c1.[Na+] [CP-457920 pharma]
[1]
  AC50 at the lowest concentration tested (LCT): LGIC_bGABARa5

## O=C(N[C@H]1CN2CCC1CC2)c1cc2ccoc2cn1 [PHA-00543613 pharma]
[2]
  AC50 at the lowest concentration tested (LCT): LGIC_rNNR_BungSens

## CN1CCN(c2ccccc2/C=C2\SCCN(c3ccc(Cl)c(Cl)c3)C2=O)CC1 [elzasonan (CP-448187 pharma), elzasonan]
[3]
  AC50 at the lowest concentration tested (LCT): GPCR_hAdrb2

## CCOc1cccc(-n2cc(C(=O)N3CCN(c4cc(C(=O)[O-])c5ccccc5c4)CC3)nc2-c2ccc(C)cc2)c1.[Na+] [sodium 3-(4-{[1-(3-ethoxyphenyl)-2-(4-methylphenyl)-1H-imida] [sodium 3-(4-{[1-(3-ethoxyphenyl)-2-(4-methylphenyl)-1H-imidazol-4-yl]carbonyl}piperazin-1-yl)naphthalene-1-carboxylate]
[4]
  AC50 at the lowest concentration tested (LCT): GPCR_mCCKAPeripheral

## CS(=O)(=O)O.Cc1nccn1-c1ccc(Sc2cccc(C3(C(N)=O)CCOCC3)c2)cc1 [4-(3-{[4-(2-methyl-1H-imidazol-1-yl)phenyl]sulfanyl}phenyl)tetrahydro-2H-pyran-4-carboxamide methanesulfonate]
[5]
  AC50 at the lowest concentration tested (LCT): TR_gDAT

## CCCCc1ccc2c(n1)[C@@H](c1ccc(OC)cc1C[C@H](C)C(=O)[O-])[C@H](C(=O)[O-])[C@H]2c1ccc2c(c1)OCO2.[Na+].[Na+] [disodium (5S,6R,7R)-5-(1,3-benzodioxol-5-yl)-2-butyl-7-{2-[(2S)-2-carboxylatopropyl]-4-methoxyphenyl}-6,7-dihydro-5H-cyclopenta[b]pyridine-6-carboxylate]
[6]
  AC50 at the lowest concentration tested (LCT): GPCR_hETA

## CCOC(=O)COc1cc(-n2ncc(C(F)(F)F)c(C)c2=O)c(F)cc1Cl [flufenpyr-ethyl]
[7]
  AC50 at the lowest concentration tested (LCT): ADME_hCYP4F12_Activator

## CCCN(CC)CC1COC2(CCC(C(C)(C)C)CC2)O1 (stereo not drawn) [spiroxamine]
[8]
  AC50 at the lowest concentration tested (LCT): OR_gSIGMA_NonSelective

## NC(=O)Cn1c(=O)cc(CCN2CCN(c3nccc4sccc34)CC2)c2ccc(F)cc21 [trelanserin (SL650472 pharma), trelanserin]
[9]
  AC50 at the lowest concentration tested (LCT): GPCR_h5HT2A/7
[10]
  AC50 at the lowest concentration tested (LCT): GPCR_hDRD1
[11]
  AC50 at the lowest concentration tested (LCT): r5HT_NonSelective
[12]
  AC50 at the lowest concentration tested (LCT): p5HT2C
[13]
  AC50 at the lowest concentration tested (LCT): GPCR_h5HT2A
[14]
  AC50 at the lowest concentration tested (LCT): GPCR_hDRD1/4.4

## CNCc1cc(F)ccc1Oc1ccc(Cl)c(Cl)c1 [1-[2-(3,4-dichlorophenoxy)-5-fluorophenyl]-N-methylmethanamine]
[15]
  AC50 at the lowest concentration tested (LCT): TR_rSERT

## mancozeb
[16]
  AC50 at the lowest concentration tested (LCT): ENZ_hDUSP3
[17]
  effect on kinase and phosphatase assays, in words: affected multiple kinase and phosphatase assays

## emamectin benzoate
[18]
  AC50 at the lowest concentration tested (LCT): GPCR_hNTS
